Laboratory results published in patent EP4567040A1, “CRYSTAL FORM OF FUSED TRICYCLIC DERIVATIVE AND PREPARATION METHOD” (Jiangsu Hengrui Pharmaceuticals Co., Ltd., priority 2022, dated 2024).

Columns and labels:
Assay type in all cases: physicochemical
[1] = Hygroscopicity study of free-state crystal forms (DVS); details: for 0.0% RH-80.0% RH (hygroscopicity, mass change): DVS, 25 °C; for Crystal form: crystal form after DVS test
Procedure: Testing was performed using Surface Measurement Systems advantage 2, at 25 °C, with the humidity changing from 50% -95%-0%-95%-50%RH, in steps of 10%. The criterion was that each gradient mass change dM/dT is less than 0.002%, TMAX 360 min, two cycles.
Surface Measurement Systems intrinsic DVS was adopted. At 25 °C, the crystal forms were tested in a humidity range of 0%-95%, with increments of 10%. The criterion was that each gradient mass change dM/dT is less than 0.002%, TMAX 360 min, two cycles.

[2] = Influencing factor stability study of crystal forms; details: for physical stability / chemical stability: 30-day influencing factor experiments; for chemical stability: high temperature and high humidity conditions
Procedure: Example 50. Influencing Factor Stability Study of Crystal Forms Free-state samples were spread out, left to stand in open flasks, and subjected to 30-day stability tests under light exposure (4500 Lux), high temperature (40 °C and 60 °C), and high humidity (RH 75% and RH 92.5%) conditions.

[3] = Long-term/accelerated stability of crystal forms; details: for Purity%: sealed in aluminum foil bag
Procedure: Free-state samples were sealed in aluminum foil bags and left to stand under 25 °C/60% RH and 40 °C/75% RH conditions to test their stability.

[4] = Light exposure (4500 Lux), 7 days, open flask
[5] = Light exposure (4500 Lux), 14 days, open flask
[6] = Light exposure (4500 Lux), 30 days, open flask
[7] = 25 °C/60% RH, after standing up to 6 months
[8] = 40 °C/75% RH, after standing up to 6 months
[9] = long-term accelerated conditions for 6 months

C[C@H]1COc2c(-c3nc(N[C@@H]4CCOC[C@H]4O)ncc3Cl)cc(F)c3nc(C(C)(C)O)n1c23 [Crystal form D, (3S,4R)-4-((5-chloro-4-((S)-8-fluoro-2-(2-hydroxypropan-2-yl)-3-methyl-3,4-dihydro-5-oxa-1,2a-diazaacenaphthylen-6-yl)pyrimidin-2-yl)amino)tetrahydro-2H-pyran-3-ol]
0.0% RH-80.0% RH (hygroscopicity, mass change) [1]: 0.46%
Crystal form [1]: No change
physical stability [2]: good physical stability
Purity% ([2]; 40 °C, 7 days, open flask): 99.9%
Purity% ([2]; 40 °C, 14 days, open flask): 99.9%
Purity% ([2]; 40 °C, 30 days, open flask): 99.9%
Purity% ([2]; 60 °C, 7 days, open flask): 99.9%
Purity% ([2]; 60 °C, 14 days, open flask): 99.9%
Purity% ([2]; 60 °C, 30 days, open flask): 99.9%
Purity% ([2]; 75% RH, 7 days, open flask): 99.9%
Purity% ([2]; 75% RH, 14 days, open flask): 99.9%
Purity% ([2]; 75% RH, 30 days, open flask): 99.9%
Purity% ([2]; 92.5% RH, 7 days, open flask): 99.9%
Purity% ([2]; 92.5% RH, 14 days, open flask): 99.9%
Purity% ([2]; 92.5% RH, 30 days, open flask): 99.9%
Purity% ([2]; Initial, 0 days): 99.9%
Purity% [2, 4]: 96.0%
Purity% [2, 5]: 94.6%
Purity% [2, 6]: 92.8%
chemical stability [2]: good chemical stability
Purity% ([3]; 25 °C/60% RH, 1 month): 99.9%
Purity% ([3]; 25 °C/60% RH, 2 months): 99.9%
Purity% ([3]; 25 °C/60% RH, 3 months): 99.9%
Purity% ([3]; 25 °C/60% RH, 6 months): 99.9%
Purity% ([3]; 25 °C/60% RH, 14 days): 99.9%
Purity% ([3]; 25 °C/60% RH, Initial): 99.9%
Crystal form [3, 7]: No change
Purity% ([3]; 40 °C/75% RH, 1 month): 99.9%
Purity% ([3]; 40 °C/75% RH, 2 months): 99.9%
Purity% ([3]; 40 °C/75% RH, 3 months): 99.9%
Purity% ([3]; 40 °C/75% RH, 6 months): 99.9%
Purity% ([3]; 40 °C/75% RH, 14 days): 99.9%
Purity% ([3]; 40 °C/75% RH, Initial): 99.9%
Crystal form [3, 8]: No change
physical stability and chemical stability [3, 9]: good physical stability and chemical stability

C[C@H]1COc2c(-c3nc(N[C@@H]4CCOC[C@H]4O)ncc3Cl)cc(F)c3nc(C(C)(C)O)n1c23 [Crystal form G, (3S,4R)-4-((5-chloro-4-((S)-8-fluoro-2-(2-hydroxypropan-2-yl)-3-methyl-3,4-dihydro-5-oxa-1,2a-diazaacenaphthylen-6-yl)pyrimidin-2-yl)amino)tetrahydro-2H-pyran-3-ol]
0.0% RH-80.0% RH (hygroscopicity, mass change) [1]: 2.46%
Crystal form [1]: No change
physical stability [2]: good physical stability
chemical stability [2]: good chemical stability
Purity% ([3]; 25 °C/60% RH, 1 month): 99.9%
Purity% ([3]; 25 °C/60% RH, 2 months): 99.9%
Purity% ([3]; 25 °C/60% RH, 3 months): 99.9%
Purity% ([3]; 25 °C/60% RH, 6 months): 99.9%
Purity% ([3]; 25 °C/60% RH, 14 days): 99.9%
Purity% ([3]; 25 °C/60% RH, Initial): 99.9%
Crystal form [3, 7]: No change
Purity% ([3]; 40 °C/75% RH, 1 month): 99.9%
Purity% ([3]; 40 °C/75% RH, 2 months): 99.9%
Purity% ([3]; 40 °C/75% RH, 3 months): 99.9%
Purity% ([3]; 40 °C/75% RH, 6 months): 99.9%
Purity% ([3]; 40 °C/75% RH, 14 days): 99.9%
Purity% ([3]; 40 °C/75% RH, Initial): 99.9%
Crystal form [3, 8]: No change
physical stability and chemical stability [3, 9]: good physical stability and chemical stability

C[C@H]1COc2c(-c3nc(N[C@@H]4CCOC[C@H]4O)ncc3Cl)cc(F)c3nc(C(C)(C)O)n1c23 [Crystal form F, (3S,4R)-4-((5-chloro-4-((S)-8-fluoro-2-(2-hydroxypropan-2-yl)-3-methyl-3,4-dihydro-5-oxa-1,2a-diazaacenaphthylen-6-yl)pyrimidin-2-yl)amino)tetrahydro-2H-pyran-3-ol]
0.0% RH-80.0% RH (hygroscopicity, mass change) [1]: 1.10%
Crystal form [1]: No change
physical stability [2]: good physical stability
chemical stability [2]: good chemical stability
Purity% ([3]; 25 °C/60% RH, 1 month): 99.9%
Purity% ([3]; 25 °C/60% RH, 2 months): 99.9%
Purity% ([3]; 25 °C/60% RH, 3 months): 99.9%
Purity% ([3]; 25 °C/60% RH, 6 months): 99.9%
Purity% ([3]; 25 °C/60% RH, 14 days): 99.9%
Purity% ([3]; 25 °C/60% RH, Initial): 99.9%
Crystal form [3, 7]: No change
Purity% ([3]; 40 °C/75% RH, 1 month): 99.9%
Purity% ([3]; 40 °C/75% RH, 2 months): 99.9%
Purity% ([3]; 40 °C/75% RH, 3 months): 99.9%
Purity% ([3]; 40 °C/75% RH, 6 months): 99.9%
Purity% ([3]; 40 °C/75% RH, 14 days): 99.9%
Purity% ([3]; 40 °C/75% RH, Initial): 99.9%
Crystal form [3, 8]: No change
physical stability and chemical stability [3, 9]: good physical stability and chemical stability

C[C@H]1COc2c(-c3nc(N[C@@H]4CCOC[C@H]4O)ncc3Cl)cc(F)c3nc(C(C)(C)O)n1c23 [Crystal form H, (3S,4R)-4-((5-chloro-4-((S)-8-fluoro-2-(2-hydroxypropan-2-yl)-3-methyl-3,4-dihydro-5-oxa-1,2a-diazaacenaphthylen-6-yl)pyrimidin-2-yl)amino)tetrahydro-2H-pyran-3-ol]
0.0% RH-80.0% RH (hygroscopicity, mass change) [1]: 0.28%
Crystal form [1]: No change
physical stability [2]: good physical stability
chemical stability [2]: good chemical stability
Purity% ([3]; 25 °C/60% RH, 1 month): 99.95%
Purity% ([3]; 25 °C/60% RH, 2 months): 99.95%
Purity% ([3]; 25 °C/60% RH, 3 months): 99.95%
Purity% ([3]; 25 °C/60% RH, 14 days): 99.95%
Purity% ([3]; 25 °C/60% RH, Initial): 99.95%
Crystal form ([3]; 25 °C/60% RH, after standing up to 3 months): No change
Purity% ([3]; 40 °C/75% RH, 1 month): 99.95%
Purity% ([3]; 40 °C/75% RH, 2 months): 99.95%
Purity% ([3]; 40 °C/75% RH, 3 months): 99.95%
Purity% ([3]; 40 °C/75% RH, 14 days): 99.95%
Purity% ([3]; 40 °C/75% RH, Initial): 99.95%
Crystal form ([3]; 40 °C/75% RH, after standing up to 3 months): No change
physical stability and chemical stability ([3]; long-term accelerated conditions for 3 months): good physical stability and chemical stability

C[C@H]1COc2c(-c3nc(N[C@@H]4CCOC[C@H]4O)ncc3Cl)cc(F)c3nc(C(C)(C)O)n1c23 [Free-state amorphous form, (3S,4R)-4-((5-chloro-4-((S)-8-fluoro-2-(2-hydroxypropan-2-yl)-3-methyl-3,4-dihydro-5-oxa-1,2a-diazaacenaphthylen-6-yl)pyrimidin-2-yl)amino)tetrahydro-2H-pyran-3-ol]
physical stability [2]: good physical stability
Crystal form ([2]; 40 °C, 7 days, open flask): No change
Crystal form ([2]; 40 °C, 14 days, open flask): No change
Crystal form ([2]; 40 °C, 30 days, open flask): No change
Crystal form ([2]; 60 °C, 7 days, open flask): No change
Crystal form ([2]; 60 °C, 14 days, open flask): No change
Crystal form ([2]; 60 °C, 30 days, open flask): No change
Crystal form ([2]; 75% RH, 7 days, open flask): No change
Crystal form ([2]; 75% RH, 14 days, open flask): No change
Crystal form ([2]; 75% RH, 30 days, open flask): No change
Crystal form ([2]; 92.5% RH, 7 days, open flask): No change
Crystal form ([2]; 92.5% RH, 14 days, open flask): No change
Crystal form ([2]; 92.5% RH, 30 days, open flask): No change
Crystal form ([2]; Initial, 0 days): Free-state amorphous form
Crystal form [2, 4]: No change
Crystal form [2, 5]: No change
Crystal form [2, 6]: No change
chemical stability [2]: good chemical stability
Purity% ([3]; 25 °C/60% RH, 1 month): 99.0%
Purity% ([3]; 25 °C/60% RH, 2 months): 98.9%
Purity% ([3]; 25 °C/60% RH, 6 months): 98.8%
Purity% ([3]; 25 °C/60% RH, 14 days): 99.0%
Purity% ([3]; 25 °C/60% RH, Initial): 99.0%
Crystal form [3, 7]: No change
Purity% ([3]; 40 °C/75% RH, 1 month): 99.0%
Purity% ([3]; 40 °C/75% RH, 2 months): 98.9%
Purity% ([3]; 40 °C/75% RH, 6 months): 98.8%
Purity% ([3]; 40 °C/75% RH, 14 days): 99.0%
Purity% ([3]; 40 °C/75% RH, Initial): 99.0%
Crystal form [3, 8]: Deliquescence
deliquescence ([3]; accelerated conditions): deliquescence
physical stability and chemical stability ([3]; under other conditions (than those giving deliquescence)): good physical stability and chemical stability
